The compounds below were run against T1, alpha-amylase (Homo sapiens, UniProt P04746) (assay: In vitro alpha-amylase inhibition assay (EnzChek Ultra-Amylase-Assay Kit)).
T1 sequence (P04746 16-511): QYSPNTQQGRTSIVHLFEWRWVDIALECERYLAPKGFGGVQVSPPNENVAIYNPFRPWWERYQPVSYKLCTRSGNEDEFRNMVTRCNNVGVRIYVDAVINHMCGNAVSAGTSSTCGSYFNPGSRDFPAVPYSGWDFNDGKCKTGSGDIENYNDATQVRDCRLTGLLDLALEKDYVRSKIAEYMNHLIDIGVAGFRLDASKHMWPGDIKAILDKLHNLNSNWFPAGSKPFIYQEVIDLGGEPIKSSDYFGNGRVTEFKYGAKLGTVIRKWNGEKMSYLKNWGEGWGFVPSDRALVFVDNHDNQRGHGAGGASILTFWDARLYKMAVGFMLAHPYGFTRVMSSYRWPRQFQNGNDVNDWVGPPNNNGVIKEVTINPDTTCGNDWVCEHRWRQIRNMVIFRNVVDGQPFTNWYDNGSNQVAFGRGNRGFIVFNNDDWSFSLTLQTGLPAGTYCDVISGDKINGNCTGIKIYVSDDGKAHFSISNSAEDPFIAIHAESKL

SMILES	IC50
O=C(c1cccc(O)c1)c1c(O)cc(O)cc1O[C@@H]1O[C@H](CO)[C@@H](O)[C@H](O)[C@H]1O [Compound 3, 2,4,3’-Trihydroxy benzophenone-6-O-β-D-glucopyranoside]	15.8 µM
O=C(c1ccc(O)c(O)c1)c1c(O)cc(O)cc1O[C@@H]1O[C@H](CO)[C@@H](O)[C@H](O)[C@H]1O [Compound 4, Rhodanthenone]	10.4 µM
O=C1c2c(O)cc(O)c([C@@H]3O[C@H](CO)[C@@H](O)[C@H](O)[C@H]3O)c2O[C@H](c2ccc(O)cc2)[C@H]1O [Compound 5, Aromadendrin-8-C-glucoside]	8.3 µM
Oc1cc(O)c2c(c1)O[C@H](c1ccc(O)c(O)c1)[C@H](O)C2 [Compound 6, Epicatechin]	8.9 µM
O=C(c1cc(O)c(O)cc1O)c1c(O)cc(O)cc1OC1OC(CO)C(O)C(O)C1O [Compound 8, 6-O-β-D-Glucopyranosyl-2,4,6,3′,4′,6′-hexahydroxybenzophenone]	7.1 µM
COc1ccc(C2Oc3c(c(O)cc(O)c3C3OC(CO)C(O)C(O)C3O)C(=O)C2O)cc1 [Compound 9, 2R,3R-5,7-Dihydroxy-8-C-β-D-glucopyranosyl-4-methoxy-2,3-dihydroflavon-3-ol]	12.8 µM
COc1c(O)cc2oc3c(CC=C(C)CCC=C(C)C)c(O)cc(O)c3c(=O)c2c1CC=C(C)CCC=C(C)C [Compound 10, Mangostanaxanthone I]	28.3 µM
COc1c(O)cc2oc3cc(O)c(CC=C(C)C)c(O)c3c(=O)c2c1CC=C(C)C [Compound 13, α-Mangostin]	44.1 µM
CC(C)=CCc1c(O)cc2oc3c(CC=C(C)C)c(O)c(O)c(CC=C(C)C)c3c(=O)c2c1O [Compound 15, Garcinone E]	18.8 µM
CC(C)=CCc1c(O)c(CC=C(C)C)c2oc3c(O)ccc(O)c3c(=O)c2c1O [Compound 17, Gartanin]	21.2 µM
CC(C)=CCc1c(O)cc2oc3c(CC=C(C)C)c(O)c4c(c3c(=O)c2c1O)C=CC(C)(C)O4 [Compound 23, Tovophyllin A]	20.4 µM
COc1c(O)cc2oc3cc(O)c(/C=C\C(C)(C)O)c(O)c3c(=O)c2c1CC=C(C)C [Compound 28, Mangostanaxanthone IV]	46.5 µM
CC(C)=CCc1c(O)c(O)c(/C=C\C(C)(C)O)c2c(=O)c3c(O)c(/C=C\C(C)(C)O)c(O)cc3oc12 [Compound 29, Mangostanaxanthone V]	11.9 µM
CC(C)=CCc1c(O)cc2oc3c(/C=C\C(C)(C)O)c(O)c(O)c(CC=C(C)C)c3c(=O)c2c1O [Compound 30, Mangostanaxanthone VI]	21.9 µM
CC(C)=CCc1c(O)cc2oc3cc(O)c(O)c(/C=C\C(C)(C)O)c3c(=O)c2c1O [Compound 31, Mangostanaxanthone VII]	19.5 µM
COc1cc2oc3cc(O)c(OC)c(CC=C(C)C)c3c(=O)c2c(O)c1/C=C\C(C)(C)O [Compound 35, Mangostanaxanthone VIII]	40.6 µM
CC(C)=CCc1c(O)c(C(=O)CC(C)(C)O)c2oc3c(O)ccc(O)c3c(=O)c2c1O [Compound 39, Garcixanthone C]	17.1 µM
CC(C)=CCc1c(O)cc2oc3c(O)c(O)c(O)c(CC=C(C)C)c3c(=O)c2c1O [Compound 40, Garcixanthone D]	11.1 µM
